This assay addresses Mu-type opioid receptor (Cavia porcellus, UniProt P97266). In words: Inhibitory activity against opioid receptor mu of guinea pig brain using [3H]DAGO radioligand.

Mu-type opioid receptor, sequence (P97266 whole entry): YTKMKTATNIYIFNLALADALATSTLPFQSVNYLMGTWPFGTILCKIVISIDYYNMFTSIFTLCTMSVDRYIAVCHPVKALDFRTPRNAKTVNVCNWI

As usually defined, the IC50 is the point on the concentration scale where inhibition reaches its midpoint. Low readings indicate inhibition by little substance, high ones a need for much substance. With `CN1CC[C@]23CCCC[C@H]2[C@H]1Cc1ccc(O)cc13` [LEVORPHANOL], the half-maximal inhibitory concentration (IC50) is 0.6 nM.

Values taken from ChEMBL document CHEMBL1124488 (J Med Chem, 1989).
